Laboratory results taken from PMC11274643, “Design, Synthesis, Characterization, and Cytotoxicity of New Pyrazolylmethylene-2-thioxoimidazolidin-4-one Derivatives towards Androgen-Sensitive LNCaP Prostate Cancer Cells” (Biomolecules, 2024).

Legend:
[1] = system: AR+LNCaP androgen-sensitive human prostate cancer cell line; test: MTT in vitro cytotoxicity assay, 24 h incubation; format: cell-based; details: for IC50: Homo sapiens, MTT; for Selective Index Wi38/Lncap: ratio of IC50 values
Description: (§1) The antitumor properties of pyrazolylmethylene-2-thioxoimidazolidin-4-one derivatives (3a–p) against androgen-sensitive (AR^+LNCaP; ATCC CRL-1740, Accession: CVCL_0395) and androgen-insensitive (AR^-PC-3; ATCC CRL-1435, Accession: CVCL_D5ZS) human prostate cancer cell lines in addition to normal human lung fibroblast cell line (Wi38, Accession: CVCL_2759) were evaluated by MTT assay. AR^+LNCaP, AR^-PC-3, and Wi38 cell lines were purchased frozen in liquid nitrogen from Egyptian Company for Production of Vaccines, Sera and Drugs, Cairo, Egypt (VACSERA). Tumor cell lines were stored as monolayer cultures in DMEM supplemented with 10% FBS and 1% penicillin–streptomycin. MTT assay was carried out as described previously in the literature. In brief, AR^+LNCaP, AR^-PC-3, and Wi38 cells were cultured into 96-well plates containing 100 µL of culture medium per each well. […] A control containing only culture medium was also applied. The assay was performed in triplicate. The cells were incubated overnight to grow at 37 °C in 5% CO2. After removing the growth medium, 100 µL of MTT (0.4 mg/mL of PBS) were added. After 24 h of incubation, the supernatant was removed and 100 µL of DMSO (Sigma Aldrich, Germany) were then added to each sample. Absorbance at 550 nm was measured. The formula (Reading of extract/Reading of negative control) × 100 was applied to calculate the viability percentage. The IC50 value of test compounds (3a–p) was also determined using CPE measurements of normal Wi38 cells (normal human lung fibroblast cells). The MTT assay was repeated with the test compounds (3i, 3k, 3o, 3j, 3p, and 3m) using the three cell types which were stimulated by 1 nM DHT after 48 h of incubation. IC50 values were estimated using Graph Pad Prism computer software (International Scientific Community, San Diego, CA, USA) from linear regression analysis of the concentration–response curves plotted for each tested compound [36].
(§2) In vitro cytotoxicity assay was performed to elucidate the antitumor properties of the synthesized derivatives of pyrazolylmethylene-2-thioxoimidazolidin-4-one. […] The cytotoxicity assay was performed using MTT assay as described in the Materials and Methods Section 2.4.1. The test compounds were dissolved in DMSO as stock solutions (<0.5% (v/v)) and stored in the dark at −20 °C. The human prostate cancer cells and normal human lung fibroblast cells were subjected to variable doses of the compounds for 24 h.

[2] = system: AR-PC-3 androgen-insensitive human prostate cancer cell line; test: MTT in vitro cytotoxicity assay, 24 h incubation; format: cell-based; details: for IC50: Homo sapiens, MTT; for Selective Index Wi38/PC-3: ratio of IC50 values
Description: as §1, §2

[3] = system: Wi38 normal human lung fibroblast cell line; test: MTT in vitro cytotoxicity assay, 24 h incubation; format: cell-based; details: WI-38
Description: as §1, §2

[4] = system: AR+LNCaP androgen-sensitive human prostate cancer cell line; test: MTT cytotoxicity assay in presence of 1 nM DHT, 48 h incubation; format: cell-based; details: for IC50: Homo sapiens; for Selectivity AR-/AR+: IC50 PC-3 / IC50 LNCaP
Description: as §1
(§3) The assay was performed in the presence of dihydrotestosterone (1 nM DHT) for 48 h of incubation as previously described. DHT is a potent inducer of androgens that enhances prostate cancer disease progression.

[5] = system: AR-PC-3 androgen-insensitive human prostate cancer cell line; test: as above; format: cell-based
Description: as §1, §3

[6] = system: Wi38 normal human lung fibroblast cell line; test: as above; format: cell-based; details: WI-38, read-out: IC50 Wi38
Description: as §1, §3

[7] = system: active human caspase-3 in AR+LNCaP cells; test: Detection of active Caspase 3 in AR+LNCaP cell lysates (Invitrogen Elisa kit); format: cell-based; set-up: Caspase 3 Conc. (Average): unit not given here; details: for active Caspase 3 fold change compared to untreated cells / induction of active caspase 3 as a percentage of the reference drug Enzalutamide: IC50 concentration; for active Caspase 3 fold change compared to untreated cells: 1 nM DHT, AR+LNCaP lysate; for induction of active caspase 3 as a percentage of the reference drug Enzalutamide: AR+LNCaP; for Caspase 3 fld / Caspase 3: LNCaP, supplement lab report; for Caspase 3 fld: fold of control; for Caspase 3 Conc. (Average): supplement ELISA read-out, average of two wells
Description: Untreated AR^+LNCaP and Enzalutamide-treated AR^+LNCaP were used as negative and positive controls, respectively. AR^+LNCaP cells were cultured in 96-well plates at a cell density of 1 × 10^4 cells/well. Cells were then lysed with 50 µL lysis buffer/well supplemented with the Invitrogen Elisa kit for detection of active human caspase-3 (Invitrogen, Camarillo, CA, USA). Plates were frozen at −80 °C for 30 min and then thawed. The lysate was mixed with 2 Z-DEVD-R110 substrate and incubated at room temperature for 30 min. A fluorescence microplate reader (Tecan, Mainz-Kastel, Germany), was used to measure fluorescence via excitation at 496 nm and emission detection at 520 nm. Values were normalized with total protein content. Active caspase 3 accumulation was determined based on standard dilution series of Human Caspase-3 samples provided with the kit. […]

[8] = system: AR+LNCaP cells; test: DNA content at cell cycle stages (Propidium Iodide flow cytometry); format: cell-based, human; details: IC50 concentration, 1 nM DHT
Description: The amount of DNA contents of AR^+LNCaP cells stimulated with 1 nM DHT and treated with representative test compounds 3i and 3k at the different stages of the cell cycle were quantitatively evaluated as described previously. […] The Ab139418–Propidium Iodide Flow Cytometry Kit for Cell Cycle Analysis (ab139418, Abcam, Cambridge, UK) was employed for this assay following the procedures provided by the supplier.
Firstly, the ab139418-Propidium Iodide Flow Cytometry Kit for Cell Cycle Analysis (Bio vision, Boston, MA, USA) was used to quantify DNA contents at each cell cycle stage as an indicator of the cell cycle growth arrest.

[9] = system: AR+LNCaP cells; test: Cell apoptosis assay (Annexin V-FITC, flow cytometry); format: cell-based, human; details: IC50 concentration, 1 nM DHT, 24 h
Description: Cell apoptosis assay was performed to ensure the efficacy of compounds 3i and 3k against the progression of AR^+LNCaP tumor cell growth in the presence of 1 nM DHT. Untreated AR^+LNCaP and Enzalutamide-treated AR^+LNCaP were used in this assay as negative and positive controls, respectively. AR^+LNCaP cells were precultured in 25 cm^2 flasks. Briefly, 1 nM DHT was then added to the growing cells. […] AR^+LNCaP cells were harvested and fixed with 70% (v/v) ethanol in FBS (Sigma-Aldrich, Germany), then maintained at 4 °C overnight. The cells were resuspended in FBS containing 0.1% (v/v) Triton X-100, 40 µg/mL […], and 0.1 mg/mL RNase then incubated in a dark chamber at 37 °C for 30 min. A flow-cytometer (Becton Dickinson, San Jose, CA, USA) supplemented with an argon ion laser at a wavelength of 488 nm was used to analyze the AR^+LNCaP cell apoptotic stages. Based on the protocol described by Ozgur et al. (2003), analysis of the data was implemented using Multicycle Software (Phoenix Flow Systems, San Diego, CA, USA; http://www.phoenixflow.com/index.html).
The active compounds 3i and 3k were further analyzed to evaluate their antitumor properties against the growth of the AR^+LNCaP prostate cancer cell line. […] Untreated AR^+LNCaP cells and Enzalutamide reference drug were also used as negative and positive controls in this assay, respectively.

Compound	IC50 [1] [µM]	Selective Index Wi38/Lncap [1]	IC50 [2] [µM]	Selective Index Wi38/PC-3 [2]	IC50 [3] [µM]	IC50 [4] [µM]	Selectivity AR-/AR+ [4]	IC50 [5] [µM]	CC50 [6] [µM]	active Caspase 3 fold change compared to untreated cells [7] [fold]	induction of active caspase 3 as a percentage of the reference drug Enzalutamide [7] [%]	Caspase 3 fld [7]	Caspase 3 [7] [pg/mL]	Caspase 3 Conc. (Average) [7]	melting point [°C]	other results
O=C1NC(=S)NC1=Cc1cn(-c2ccc(F)cc2)nc1-c1ccc(Cl)cc1 [Compound 3i, 5-((3-(4-Chlorophenyl)-1-(4-fluorophenyl)-1H-pyrazol-4-yl)methylene)-2-thioxoimidazolidin-4-one]	12.07 ± 0.09	2.5	19.5 ± 0.21	1.5	29.93 ± 0.12	6.08 ± 0.04	2.6	15.52 ± 0.12	21.93 ± 0.14	4.7	71.4	4.667	358.9	358.9	168 to 170	DNA Content (%) G0–G1 [8]: 58.33%; DNA Content (%) G2/M [8]: 22.48%; DNA Content (%) S [8]: 19.19%; Early Apoptosis (%) [9]: 11.47%; Late Apoptosis (%) [9]: 7.55%; Necrotic Cells (%) [9]: 2.77%; Total Apoptosis (%) [9]: 21.79%
O=C1NC(=S)NC1=Cc1cn(-c2ccc(F)cc2)nc1-c1ccc(Br)cc1 [Compound 3j, 5-((3-(4-Bromophenyl)-1-(4-fluorophenyl)-1H-pyrazol-4-yl)methylene)-2-thioxoimidazolidin-4-one]	13.9 ± 0.14	2.2	24.44 ± 0.12	1.5	31.18 ± 0.16	7.72 ± 0.15	1.8	14.2 ± 0.15	21.08 ± 0.06	4.2	63.0	4.115	316.5	316.5	199 to 201	–
